Marks after values point to notes of the source that are not given here.
How the values were obtained:
[1] = biological target: T1, FPRL1 (HEK293 cells stably transfected with FPRL1) (Homo sapiens, UniProt P25090); assay: Chemotaxis of FPRL1/293 cells; type: cell-based; details: FIG. 3A
T1 construct: expressed in transfected cells; gift of P. M. Murphy and J. L. Gao (NIAID, NIH)
T1 sequence (P25090 1-351): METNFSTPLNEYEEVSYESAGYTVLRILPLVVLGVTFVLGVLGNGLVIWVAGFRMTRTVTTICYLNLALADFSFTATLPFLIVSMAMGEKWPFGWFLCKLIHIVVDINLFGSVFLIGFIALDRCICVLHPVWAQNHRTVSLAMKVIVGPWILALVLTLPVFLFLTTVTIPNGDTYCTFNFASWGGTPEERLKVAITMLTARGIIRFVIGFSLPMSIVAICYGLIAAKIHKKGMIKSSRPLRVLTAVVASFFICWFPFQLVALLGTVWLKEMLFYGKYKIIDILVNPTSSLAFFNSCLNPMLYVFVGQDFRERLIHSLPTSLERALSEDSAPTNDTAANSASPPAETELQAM
Method: (§1) A. Selective induction of FPRL1/293 cell chemotaxis by LL-37. The migration of parental HEK293 (open bars), FPRL1/293 (dotted bars), or ETFR (closed bars) cells was assessed by chemotaxis assay with the use of collagen-coated 10-μm membranes. Cells were used at a concentration of 1×10^6 cells/ml. The average C. I. (Mean±SD) of triplicate wells is shown. Spontaneous cell migration (without LL-37) was 10-20 cells/HPF. *p<0.05 when compared with chemotaxis medium alone.
(§2) Human peripheral blood mononuclear cells (PBMC) were isolated from leukopacks (Courtesy of the Transfusion Medicine Department, NIH Clinic Center, Bethesda, MD) by routine Ficoll-Hypaque density gradient centrifugation. Monocytes were purified from human PBMC with the use of MACS CD14 monocyte isolation kit (Miltenyi Biotech Inc., Auburn, CA) according to the manufacturer's recommendation (12). […]
(§3) Migration of neutrophils, monocytes, T cells, and HEK293 or transfectant cells in response to chemotactic factors was assessed using a 48-well microchemotaxis chamber technique as previously described (17, 18). […] After incubation at 37_C in humidified air with 5% CO2 for a period of time (60 min for neutrophils, 90 min for monocytes, 180 min for T cells, and 300 min for HEK293, ETFR, and FPRL1/293 cells), the membranes were removed, scraped, stained, and counted. […]

[2] = 10% human AB serum; LL-37 at 10^−5 M; cited from earlier work
parental HEK293 cells = assay: Chemotaxis of parental HEK293 cells; type: cell-based, human; details: FIG. 3A
Method: as §1
(§4) Migration of neutrophils, monocytes, T cells, and HEK293 or transfectant cells in response to chemotactic factors was assessed using a 48-well microchemotaxis chamber technique as previously described (17, 18). Chemotactic factors diluted in chemotaxis medium (CM, RPMI 1640 containing 1% BSA) were placed in the wells of the lower compartment of the chamber (Neuro Probe, Cabin John, […]), and cells suspended in CM were added to the upper compartment. The lower and upper compartments were separated by a polycarbonate membrane (Osmonics, Livermore, Calf.). After incubation at 37_C in humidified air with 5% CO2 for a period of time (60 min for neutrophils, 90 min for monocytes, 180 min for T cells, and 300 min for HEK293, ETFR, and FPRL1/293 cells), the membranes were removed, scraped, stained, and counted. The results are presented as number of cells per high power field (No./HPF) or as chemotactic index (C.I.).

mammalian cells = details: cited from earlier work
[3] = biological target: T2, formyl peptide receptor (ETFR cells) (Homo sapiens, UniProt P21462); assay: Ca2+ flux in ETFR cells; type: cell-based
T2 construct: expressed in transfected cells; provided by H. Ali and R. Snyderman (Duke University)
T2 sequence (P21462 1-350): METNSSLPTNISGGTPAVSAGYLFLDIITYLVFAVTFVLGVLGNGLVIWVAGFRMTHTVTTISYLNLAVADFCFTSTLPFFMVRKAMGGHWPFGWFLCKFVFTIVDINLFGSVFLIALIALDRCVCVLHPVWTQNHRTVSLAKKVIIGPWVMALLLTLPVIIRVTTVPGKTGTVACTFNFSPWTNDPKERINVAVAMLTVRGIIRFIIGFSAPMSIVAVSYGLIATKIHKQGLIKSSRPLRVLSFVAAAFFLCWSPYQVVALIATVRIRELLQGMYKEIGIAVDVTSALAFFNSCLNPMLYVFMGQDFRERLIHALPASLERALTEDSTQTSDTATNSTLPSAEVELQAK

immature dendritic cells [4] = assay: Chemotaxis of monocyte-derived immature dendritic cells; type: cell-based, human; details: monocytes differentiated into immature dendritic cells
human CD4 T cells = assay: CD4 T lymphocyte chemotaxis assay; type: cell-based
Method: (§5) FIGS. 4A-B show the chemotaxis of human neutrophils (A) and CD4 T lymphocytes (B) in response to LL-37. The cell migration was assessed by chemotaxis assay with the use of uncoated (A) or fibronectin-coated (B) 5 μm membranes. The results are presented as the average C. I. (Mean±SD) of triplicate wells. *p<0.05 when compared with spontaneous cell migration (chemotactic medium alone). Neutrophils and CD4 T cells were used at a concentration of 1×10^6 cells/ml and 5×10^6 cells/ml, respectively. Spontaneous neutrophil and T cell migration (without LL-37) was 30-50 and 30-40 cells/HPF, respectively.
(§6) Human peripheral blood mononuclear cells (PBMC) were isolated from leukopacks (Courtesy of the Transfusion Medicine Department, NIH Clinic Center, Bethesda, MD) by routine Ficoll-Hypaque density gradient centrifugation. […]
as §3

FPRL1 (FPRL1/293 cells) = biological target: T3, FPRL1 (FPRL1/293 cells) (Homo sapiens, UniProt P25090); assay: Ca2+ mobilization assay in FPRL1/293 cells; type: cell-based; details: FIG. 3B
T3 construct: expressed in transfected cells; gift of P. M. Murphy and J. L. Gao (NIAID, NIH)
T3 sequence (P25090 1-351): T1 sequence (P25090 1-351)
From the text: B. LL-37-induced Ca^2+ flux in FPRL1/293 cells. The arrow indicates the time point where LL-37 was applied to the cells.
as §2, with “(12). Neutrophils were purified from the same leukopacks by 3% dextran sedimentation. T cells were purified from PBMC by the use of Human CD4 T Cell Enrichment Columns (R & D Systems, Minneapolis, MN) (12). The purity of neutrophils, monocytes, and T cells by FACScan analysis was more than 95%.” for “(12).”
Monocytes or FPRL1/293 cells (10^7 cells/ml in RPMI 1640 containing 10% FBS) were loaded by incubating with 5 μM Fura-2 (Molecular Probe) at 24_C for 30 minutes in the dark. […] Each 2 ml of loaded cells suspension was then transferred into a quartz cuvette, which was placed in a luminescence spectrometer LS50 B (Perkin-Elmer Limited, Beaconsfield, U.K). Ca^2+mobilization of the cells in response to chemotactic factors was measured by recording the ratio of fluorescence emitted at 510 nm after sequential excitation at 340 nm and 380 nm.

immature dendritic cells [5] = assay: Ca2+ mobilization in monocyte-derived immature dendritic cells; type: cell-based, human; details: monocytes differentiated into immature dendritic cells
CCR2 = biological target: T4, CCR2 (Homo sapiens, UniProt P41597); assay: Examination of HEK293 cells stably transfected to express CCR2; type: cell-based
T4 construct: expressed in transfected cells
From the text: To mediate its chemotactic effect on monocytes, LL-37 must use a chemotactic receptor expressed by monocytes, but not by monocyte-derived immature dendritic cells.

[6] = system: human peripheral blood monocytes; assay: Monocyte chemotaxis assay (48-well microchemotaxis chamber, incl. checkerboard analysis); type: cell-based; details: for Migrated monocytes (checkerboard analysis): monocytes 1 × 10^6/ml, Mean ± SD of triplicate wells
Method: A. The migration of monocytes (1×10^6 cells/ml) was assessed by chemotaxis assay using 5-μm uncoated membranes. Spontaneous cell migration (without LL-37) was 30-50 cells/HPF. The average C. I. (Mean ±SD) of triplicate wells is shown. *p<0.05 when compared with chemotaxis medium alone (open bar). […]
(§7) Human peripheral blood mononuclear cells (PBMC) were isolated from leukopacks (Courtesy of the Transfusion Medicine Department, NIH Clinic Center, Bethesda, MD) by routine Ficoll-Hypaque density gradient centrifugation. Monocytes were purified from human PBMC with the use of MACS CD14 monocyte isolation kit (Miltenyi Biotech Inc., Auburn, CA) according to the manufacturer's recommendation (12). Neutrophils were purified from the same leukopacks by 3% dextran sedimentation. T cells were purified from PBMC by the use of Human CD4 T Cell Enrichment Columns (R & D Systems, Minneapolis, MN) (12). The purity of neutrophils, monocytes, and T cells by FACScan analysis was more than 95%. Rat basophilic leukemia cells stably transfected with epitope-tagged formyl peptide receptor (ETFR cells) were generously provided by Drs. H. Ali and R. Snyderman (Duke University, Durham, NC), and maintained in the presence of 0.8 mg/ml of geneticin in DMEM supplemented with 10% FBS. Human embryonic kidney cells 293 stably transfected with FPRL1 (designated FPRL1/293 cells thereafter) were a gift of Drs. P. M. Murphy and J. L. Gao (NIAID, NIH, Bethesda, Md) and were maintained in the presence of 2 mg/ml of geneticin in DMEM supplemented with 10% FBS.
as §4

[7] = biological target: T2, formyl peptide receptor (ETFR cells); assay: Chemotaxis of ETFR cells; type: cell-based; details: FIG. 3A
Method: as §1, §2, §3

[8] = system: human peripheral blood neutrophils; assay: Neutrophil chemotaxis assay; type: cell-based
Method: as §5, §6, §3

[9] = system: human peripheral blood monocytes; assay: Ca2+ mobilization assay in monocytes (Fura-2); type: cell-based; set-up: Ca2+ flux in freshly isolated monocytes at single concentration: dose or concentration left out as unconfirmed
From the text: as §7
Monocytes or FPRL1/293 cells (10^7 cells/ml in RPMI 1640 containing 10% FBS) were loaded by incubating with 5 μM Fura-2 (Molecular Probe) at 24_C for 30 minutes in the dark. Subsequently, the loaded cells were washed with and resuspended (10^6 cells/ml) in saline buffer (138 mM NaCl, 6 mM KC1, 1 mM CaCl2, 10 mM HEPES, 5 mM glucose, and 1% BSA, pH 7.4). Each 2 ml of loaded cells suspension was then transferred into a quartz cuvette, which was placed in a luminescence spectrometer LS50 B (Perkin-Elmer Limited, Beaconsfield, U.K). Ca^2+mobilization of the cells in response to chemotactic factors was measured by recording the ratio of fluorescence emitted at 510 nm after sequential excitation at 340 nm and 380 nm.

T4 sequence (P41597 whole entry): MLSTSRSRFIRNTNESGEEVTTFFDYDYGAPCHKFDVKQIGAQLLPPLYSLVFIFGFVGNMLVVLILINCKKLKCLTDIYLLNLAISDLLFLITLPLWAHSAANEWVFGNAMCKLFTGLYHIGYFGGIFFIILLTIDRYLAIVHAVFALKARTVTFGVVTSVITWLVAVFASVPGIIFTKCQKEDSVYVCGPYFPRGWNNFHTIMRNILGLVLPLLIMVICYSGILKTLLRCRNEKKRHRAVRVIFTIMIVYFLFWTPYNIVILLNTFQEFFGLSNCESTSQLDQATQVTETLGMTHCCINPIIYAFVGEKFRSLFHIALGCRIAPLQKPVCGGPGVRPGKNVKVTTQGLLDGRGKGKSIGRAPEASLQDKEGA

## LL-37: 37-residue mature antimicrobial peptide cleaved from hCAP18, human cathelicidin; synthesized by solid-phase Fmoc chemistry
[1]
  Migration of FPRL1/293 cells: migrated in response to LL-37 in a dose-dependent manner
[2]
  Antimicrobial activity in presence of serum: completely block
Parental HEK293 cells
  Migration of parental HEK293 cells: did not respond
Mammalian cells
  Concentration damaging mammalian cells (cytocidal effect): above 5×10^−5 M
[3]
  Ca2+ flux in ETFR cells: not in ETFR cells
Immature dendritic cells [4]
  Chemotaxis response of immature dendritic cells: could not respond
Human CD4 T cells; FIG. 4
  Optimal concentration to chemoattract human leukocytes (CD4 T cells): 10^−5 M
Human CD4 T cells; FIG. 4B
  Migration of CD4 T cells: induced dose-dependent migration
FPRL1 (FPRL1/293 cells)
  Ca2+ flux in FPRL1/293 cells: induced Ca^2+flux in a dose-dependent manner
Immature dendritic cells [5]
  Ca2+ mobilization response of immature dendritic cells: could not respond
CCR2
  CCR2 as a receptor (CCR2-transfected HEK293 cells): CCR2 was not a receptor
[6]; 10% human AB serum, FIG. 2B
  LL-37-induced chemotaxis of monocytes in presence of serum: not significantly inhibited
[6]; LL-37 lower wells 0 μM, upper wells 1 μM
  Migrated monocytes (checkerboard analysis): 45 ± 6 No./HPF
[6]; LL-37 lower wells 0 μM, upper wells 10 μM
  Migrated monocytes (checkerboard analysis): 44 ± 7 No./HPF
[6]; LL-37 lower wells 1 μM, upper wells 0 μM
  Migrated monocytes (checkerboard analysis): 135 ± 15** No./HPF
[6]; LL-37 lower wells 1 μM, upper wells 1 μM
  Migrated monocytes (checkerboard analysis): 50 ± 8 No./HPF
[6]; LL-37 lower wells 1 μM, upper wells 10 μM
  Migrated monocytes (checkerboard analysis): 40 ± 6 No./HPF
[6]; LL-37 lower wells 10 μM, upper wells 0 μM
  Migrated monocytes (checkerboard analysis): 495 ± 29** No./HPF
[6]; LL-37 lower wells 10 μM, upper wells 1 μM
  Migrated monocytes (checkerboard analysis): 265 ± 5** No./HPF
[6]; LL-37 lower wells 10 μM, upper wells 10 μM
  Migrated monocytes (checkerboard analysis): 95 ± 2* No./HPF
[6]; dose-dependent, FIG. 1A
  Optimal concentration for induction of monocyte migration: 10^−5 M
[7]
  Migration of ETFR cells: did not respond
[8]; FIG. 4
  Optimal concentration to chemoattract human leukocytes (neutrophils): 10^−5 M
[8]; FIG. 4A
  Migration of purified neutrophils: induced dose-dependent migration
[9]; FIG. 1B
  Induction of Ca2+ flux in monocytes: dose-dependently induced Ca^2+ flux
[9]; Su peptide after LL-37 at 10^−5 M, FIG. 3C b
  Desensitization of Su peptide-induced Ca2+ flux in monocytes: almost completely desensitized
[9]; peptide, FIG. 3C a and c
  Ca2+ flux in freshly isolated monocytes at single concentration: induced Ca^2+ flux to a similar extent

From US20040013679A1, “LL-37 is an immunostimulant” (priority 2000, published 2004)
